Test system: 2G12
Experiment: Binding curve and KD determination of 2G12-glycopeptide interaction (radiolabeled glycopeptide, protein G magnetic bead capture, scintillation counting)
Conditions: for Fmax [%] / Kd: Table 4, error = standard error of fit; for Fmax [%]: maximal fraction bound from curve fit; for Kd: ribosomally translated radiolabeled glycopeptide with His6/FLAG tag, room temperature, fit Fbound=(Fmax[2G12])/(KD+[2G12])
Method: The resulting mRNAs were purified by denaturing PAGE or MEGAclear kit (Ambion), and 1 μM RNA was used in PURE system translation (reaction volume of translation varied). Typically, 25 μL of translated reaction was diluted with 100 μL of binding buffer (50 mM Tris-HCl, pH 7.8, 300 mM NaCl, 5 mM β-mercaptoethanol) and 25 μL of Ni-NTA agarose suspension (Qiagen), and tumbled at room temperature for 1 h. The resins were transferred to 0.22 μm spin-filter rinsing with 100 μL of bind buffer, and washed with 3×200 μL of bind buffer and 2×200 μL of wash buffer (50 mM Tris-HCl, pH 7.8, 5 mM β-mercaptoethanol). The bound peptides were eluted with 2×25 μL of 0.1% TFA. The eluted peptides were analyzed by MALDI-TOF MS, using α-Cyano-4-hydroxycinnamic acid matrix (Sigma), with or without desalting with ZipTip C18 resin (Millipore). For calibration of MALDI-TOF-MS, at least two of the following standards, bovine insulin, E. coli thioredoxin and/or horse apomyoglobin were used. To quantitate peptide yields, the radioactivities were measured by liquid scintillation counting. For the click reaction, the translated and purified peptides were mixed with 0.1% (v/v) Triton X-100, and then dialyzed against H2O containing 0.1% (v/v) Triton X-100 using Slide-A-Lyzer MINI Dialysis Devices, 3.5K MWCO (Thermo Scientific) overnight to desalt. After dialysis, the peptides were divided into two portions: one was glycosylated via the click reaction, while the other was saved as a non-glycosylated peptide control. […] The glycosylated peptide (<4 pmol) was incubated with 100 nM 2G12 in selection buffer (40 μL) at room temp. The solution was then tumbled 30 min with 0.12 mg of equilibrated Dynabeads Protein G to capture 2G12-glycopeptide complex. Beads were then washed with 3×40 μL of selection buffer and resuspended in 10 μL of selection buffer. The resuspended beads were heated at 70° C. for 30 min to denature 2G12 and elute glycopeptides, chilled on ice for 5 min, and tumbled at room temperature for 10 min. The magnetically isolated supernatant was recovered and the beads were rinsed with 10 μL of selection buffer.
Then, the solution was added to 0.12 mg of pre-equilibrated Dynabeads Protein G and tumbled at room temperature for 30 min. The supernatant was removed and the beads were washed with 3×40 μL of selection buffer. The radioactivities of the supernatant and wash solutions were measured by liquid scintillation counting as unbound fractions. […] The beads were resuspended in 40 μL of selection buffer, heated at 70° C. for 30 min to elute the bound glycopeptides, chilled on ice for 5 min, and tumbled at room temperature for 10 min. The supernatant was removed, and the beads were washed with 40 μL of selection buffer and resuspended in 40 μL of selection buffer. The radioactivities of these solutions and suspensions were measured by liquid scintillation counting separately and the values were combined as apparent bound fractions. […] All experiments were done at least in triplicate. KDs were calculated as described in the footnote of Table 4 (below).

SMILES	tolerance of Cys substitutions for 2G12 binding (in words) (Cys to Ser mutants, Table 6)	Fmax [%]	Kd [nM]
CC[C@H](C)[C@H](NC(=O)[C@H](CCC(N)=O)NC(=O)[C@H](CCCCN)NC(=O)[C@H](CC(C)C)NC(=O)[C@H](Cc1c[nH]cn1)NC(=O)[C@H](CC(C)C)NC(=O)[C@@H](NC(=O)[C@H](CC(=O)O)NC(=O)[C@H](CCc1cn(C2CCC(OC3O[C@H](CO[C@H]4O[C@H](CO[C@H]5O[C@H](CO)[C@@H](O)[C@H](O)[C@@H]5O[C@H]5O[C@H](CO)[C@@H](O)[C@H](O)[C@@H]5O)[C@@H](O)[C@H](O[C@H]5O[C@H](CO)[C@@H](O)[C@H](O)[C@@H]5O[C@H]5O[C@H](CO)[C@@H](O)[C@H](O)[C@@H]5O)[C@@H]4O)[C@@H](O)[C@H](O[C@H]4O[C@H](CO)[C@@H](O)[C@H](O)[C@@H]4O[C@H]4O[C@H](CO)[C@@H](O)[C@H](O)[C@@H]4O[C@H]4O[C@H](CO)[C@@H](O)[C@H](O)[C@@H]4O)[C@@H]3O)CC2)nn1)NC=O)[C@@H](C)O)C(=O)NCC(=O)NCC(=O)N[C@@H](CCc1cn(C2CCC(OC3O[C@H](CO[C@H]4O[C@H](CO[C@H]5O[C@H](CO)[C@@H](O)[C@H](O)[C@@H]5O[C@H]5O[C@H](CO)[C@@H](O)[C@H](O)[C@@H]5O)[C@@H](O)[C@H](O[C@H]5O[C@H](CO)[C@@H](O)[C@H](O)[C@@H]5O[C@H]5O[C@H](CO)[C@@H](O)[C@H](O)[C@@H]5O)[C@@H]4O)[C@@H](O)[C@H](O[C@H]4O[C@H](CO)[C@@H](O)[C@H](O)[C@@H]4O[C@H]4O[C@H](CO)[C@@H](O)[C@H](O)[C@@H]4O[C@H]4O[C@H](CO)[C@@H](O)[C@H](O)[C@@H]4O)[C@@H]3O)CC2)nn1)C(=O)N1CCC[C@H]1C(=O)N[C@@H](CC(N)=O)C(=O)N[C@@H](CS)C(=O)N[C@H](C(=O)N[C@H](C(=O)N[C@@H](CCC(N)=O)C(=O)N[C@@H](CCC(N)=O)C(=O)N[C@@H](CC(=O)O)C(=O)N[C@H](C(=O)N[C@@H](CCCNC(=N)N)C(=O)N[C@@H](CCc1cn(C2CCC(OC3O[C@H](CO[C@H]4O[C@H](CO[C@H]5O[C@H](CO)[C@@H](O)[C@H](O)[C@@H]5O[C@H]5O[C@H](CO)[C@@H](O)[C@H](O)[C@@H]5O)[C@@H](O)[C@H](O[C@H]5O[C@H](CO)[C@@H](O)[C@H](O)[C@@H]5O[C@H]5O[C@H](CO)[C@@H](O)[C@H](O)[C@@H]5O)[C@@H]4O)[C@@H](O)[C@H](O[C@H]4O[C@H](CO)[C@@H](O)[C@H](O)[C@@H]4O[C@H]4O[C@H](CO)[C@@H](O)[C@H](O)[C@@H]4O[C@H]4O[C@H](CO)[C@@H](O)[C@H](O)[C@@H]4O)[C@@H]3O)CC2)nn1)C(=O)N[C@H](C(=O)N[C@@H](CO)C(=O)N[C@H](C(=O)N1CCC[C@H]1C(=O)N[C@@H](Cc1ccc(O)cc1)C(=O)N[C@H](C(=O)N[C@@H](Cc1ccc(O)cc1)C(=O)N[C@H](C(=O)N[C@@H](Cc1c[nH]c2ccccc12)C(=O)N1CCC[C@H]1C(=O)NCC(=O)N[C@@H](CO)C(=O)NCC(=O)N[C@@H](CO)C(=O)N[C@@H](CC(C)C)C(=O)NCC(=O)N[C@@H](Cc1c[nH]cn1)C(=O)N[C@@H](Cc1c[nH]cn1)C(=O)N[C@@H](Cc1c[nH]cn1)C(=O)N[C@@H](Cc1c[nH]cn1)C(=O)N[C@@H](Cc1c[nH]cn1)C(=O)N[C@@H](Cc1c[nH]cn1)C(=O)N[C@@H](CCCNC(=N)N)C(=O)N[C@@H](CC(=O)O)C(=O)N[C@@H](Cc1ccc(O)cc1)C(=O)N[C@@H](CCCCN)C(=O)N[C@@H](CC(=O)O)C(=O)N[C@@H](CC(=O)O)C(=O)N[C@@H](CC(=O)O)C(=O)N[C@@H](CC(=O)O)C(=O)N[C@@H](CCCCN)C(=O)O)[C@@H](C)O)[C@@H](C)O)[C@@H](C)CC)[C@@H](C)O)C(C)C)[C@@H](C)O)[C@@H](C)CC (some centres unmarked) [Clone 10F3, XDTLHLKQIGGXPNCITQQDVRXTSIPYTYTWP]	tolerated	100 ± 2.7	3 ± 0.31
CC[C@H](C)[C@H](NC(=O)[C@@H](NC(=O)[C@@H](NC(=O)[C@H](Cc1c[nH]cn1)NC(=O)[C@H](CC(N)=O)NC(=O)[C@H](CC(=O)O)NC(=O)[C@H](CCc1cn(C2CCC(OC3O[C@H](CO[C@H]4O[C@H](CO[C@H]5O[C@H](CO)[C@@H](O)[C@H](O)[C@@H]5O[C@H]5O[C@H](CO)[C@@H](O)[C@H](O)[C@@H]5O)[C@@H](O)[C@H](O[C@H]5O[C@H](CO)[C@@H](O)[C@H](O)[C@@H]5O[C@H]5O[C@H](CO)[C@@H](O)[C@H](O)[C@@H]5O)[C@@H]4O)[C@@H](O)[C@H](O[C@H]4O[C@H](CO)[C@@H](O)[C@H](O)[C@@H]4O[C@H]4O[C@H](CO)[C@@H](O)[C@H](O)[C@@H]4O[C@H]4O[C@H](CO)[C@@H](O)[C@H](O)[C@@H]4O)[C@@H]3O)CC2)nn1)NC(=O)[C@@H](NC(=O)[C@H](CCCCN)NC(=O)[C@H](CCC(=O)O)NC(=O)[C@H](CCCNC(=N)N)NC(=O)[C@H](CCCCN)NC(=O)[C@H](CS)NC(=O)[C@H](CC(N)=O)NC(=O)[C@@H](NC(=O)[C@H](CCCCN)NC(=O)[C@@H](NC(=O)[C@H](C)NC(=O)[C@H](CCc1cn(C2CCC(OC3O[C@H](CO[C@H]4O[C@H](CO[C@H]5O[C@H](CO)[C@@H](O)[C@H](O)[C@@H]5O[C@H]5O[C@H](CO)[C@@H](O)[C@H](O)[C@@H]5O)[C@@H](O)[C@H](O[C@H]5O[C@H](CO)[C@@H](O)[C@H](O)[C@@H]5O[C@H]5O[C@H](CO)[C@@H](O)[C@H](O)[C@@H]5O)[C@@H]4O)[C@@H](O)[C@H](O[C@H]4O[C@H](CO)[C@@H](O)[C@H](O)[C@@H]4O[C@H]4O[C@H](CO)[C@@H](O)[C@H](O)[C@@H]4O[C@H]4O[C@H](CO)[C@@H](O)[C@H](O)[C@@H]4O)[C@@H]3O)CC2)nn1)NC=O)[C@@H](C)O)[C@@H](C)O)[C@@H](C)O)C(C)C)[C@@H](C)O)C(=O)N[C@@H](CCc1cn(C2CCC(OC3O[C@H](CO[C@H]4O[C@H](CO[C@H]5O[C@H](CO)[C@@H](O)[C@H](O)[C@@H]5O[C@H]5O[C@H](CO)[C@@H](O)[C@H](O)[C@@H]5O)[C@@H](O)[C@H](O[C@H]5O[C@H](CO)[C@@H](O)[C@H](O)[C@@H]5O[C@H]5O[C@H](CO)[C@@H](O)[C@H](O)[C@@H]5O)[C@@H]4O)[C@@H](O)[C@H](O[C@H]4O[C@H](CO)[C@@H](O)[C@H](O)[C@@H]4O[C@H]4O[C@H](CO)[C@@H](O)[C@H](O)[C@@H]4O[C@H]4O[C@H](CO)[C@@H](O)[C@H](O)[C@@H]4O)[C@@H]3O)CC2)nn1)C(=O)N[C@@H](CCCNC(=N)N)C(=O)N[C@@H](CO)C(=O)N[C@H](C(=O)N1CCC[C@H]1C(=O)N[C@@H](Cc1c[nH]c2ccccc12)C(=O)N[C@@H](Cc1ccc(O)cc1)C(=O)N[C@H](C(=O)N[C@@H](Cc1ccc(O)cc1)C(=O)N[C@@H](CCCNC(=N)N)C(=O)N[C@@H](Cc1c[nH]c2ccccc12)C(=O)N[C@@H](CC(C)C)C(=O)N1CCC[C@H]1C(=O)N[C@@H](CC(N)=O)C(=O)NCC(=O)N[C@@H](CO)C(=O)NCC(=O)N[C@@H](CO)C(=O)N[C@@H](CC(C)C)C(=O)NCC(=O)N[C@@H](Cc1c[nH]cn1)C(=O)N[C@@H](Cc1c[nH]cn1)C(=O)N[C@@H](Cc1c[nH]cn1)C(=O)N[C@@H](Cc1c[nH]cn1)C(=O)N[C@@H](Cc1c[nH]cn1)C(=O)N[C@@H](Cc1c[nH]cn1)C(=O)N[C@@H](CCCNC(=N)N)C(=O)N[C@@H](CC(=O)O)C(=O)N[C@@H](Cc1ccc(O)cc1)C(=O)N[C@@H](CCCCN)C(=O)N[C@@H](CC(=O)O)C(=O)N[C@@H](CC(=O)O)C(=O)N[C@@H](CC(=O)O)C(=O)N[C@@H](CC(=O)O)C(=O)N[C@@H](CCCCN)C(=O)O)[C@@H](C)O)[C@@H](C)CC (some centres unmarked) [Clone 10V1, XATKTNCKREKTXDNHVTIXRSIPWYTYRWLPN]		97 ± 2.1	1.9 ± 0.17

From patent publication US11345912B2, “Directed evolution of multivalent glycopeptides that tightly bind to target proteins” (Brandeis University, priority 2013, dated 2022)
